In ChEMBL document CHEMBL1201862, “PubChem BioAssay data set” (2004):
Active and inactive are the calls of the source.

Assays:
[1] = HEp-2 cell cytotoxicity, dose response, cytotoxicity control for RSV inhibitor project, HTS (AID 2410); format: functional; conditions: human respiratory syncytial virus
[2] = ZM109 Env clade C HIV-1 fusion inhibitors, dose response, HeLa effector, CEM target cells, luciferase, cherry-pick (AID 652058); format: functional, cell-based
[3] = inhibitors of clade B AD8 Env fusion, dose response, cell-based, cherry-pick (AID 652062); format: functional;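 also: luciferase signal from cell-cell fusion driven by HIV-1 clade B AD8 Env; potency is for inhibitors of fusion seen as a drop in luminescence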
[4] = target: Luciferin 4-monooxygenase (Photinus pyralis, UniProt P08659); experiment: firefly luciferase enzyme inhibitors, dose response, biochemical, luminescence (AID 1891)
[5] = Luminescence Cell-Based Dose Confirmation HTS to Identify Inhibitors of Platelet Dense Granule Release. [Related pubchem assays: 1663 (Primary HTS), 1678 (Summary of Project)]; format: functional
[6] = Luminescence Cell-Based Dose Response HTS to Identify Activators of Luciferase Translation or Activity in H4 […] Cells. [Related pubchem assays: 1829 (Project Summary), 1814 (Primary HTS)]; format: functional
H4 = experiment: Luminescence Cell-Based Dose Response HTS to Identify Activators of 5'UTR Stem-Loop Driven Prion Protein mRNA Translation in H4 Neuroglioblastoma Cells. [Related pubchem assays: 1829 (Project Summary), 1814 (Primary HTS)]; format: functional; conditions: Homo sapiens
Cytochrome P450 2C19 = Cytochrome P450 2C19 (Homo sapiens, UniProt P33261); experiment: Cytochrome panel assay with activity outcomes. Panel member name: p450-cyp2c19 Compounds with AC50 equal or less than 10 uM are considered active; format: functional; conditions: read-out: AC50
Cytochrome P450 3A4 = Cytochrome P450 3A4 (Homo sapiens, UniProt P08684);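 also: CYP3A4 tested as one member of a cytochrome P450 panel screen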
[7] = target: T1, Ubiquitin-conjugating enzyme E2 N (Homo sapiens, UniProt P61088); format: functional;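 also: Dose-response confirmation in a TR-FRET assay detecting UBC13-driven polyubiquitin chain formation, inhibition measured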
T1 sequence (P61088 whole entry): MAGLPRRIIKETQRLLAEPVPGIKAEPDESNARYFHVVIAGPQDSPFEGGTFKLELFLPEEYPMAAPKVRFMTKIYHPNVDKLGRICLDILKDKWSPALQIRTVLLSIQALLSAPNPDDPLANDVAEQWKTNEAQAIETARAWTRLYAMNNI

INS1 = experiment: beta cell apoptosis inhibitors, cytokine rescue, dose response, luminescence, retest (AID 449756); format: functional, cell-based; conditions: Rattus norvegicus;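 also: cell death triggered by IL-1 beta plus TNF-alpha plus IFN-gamma mixture; protective hits raise ATP signal compared with cytokine alone wells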
[8] = Shn3 3'UTR reporter inhibitors, dose response, cell-based, Clone20 osteoblasts, firefly luciferase, cherry-picked (AID 624132); format: functional;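 also: firefly luciferase luminescence from reporter carrying the Shn3 3'UTR in osteoblasts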
[9] = control 3'UTR Renilla luciferase suppression, dose response, counter-screen for Shn3 inhibitor project, cell-based, Clone20-Shn3RL, cherry-picked (AID 624133); format: functional
[10] = inhibitors of HIV Env-driven cell fusion, dose response, cherry-pick (AID 652057); format: functional, cell-based
[11] = P. falciparum Dd2 growth inhibitors, dose response, SYBR Green, cherry-picked samples (AID 1159567); format: functional, cell-based

Chain of Luciferin 4-monooxygenase (P08659 whole entry): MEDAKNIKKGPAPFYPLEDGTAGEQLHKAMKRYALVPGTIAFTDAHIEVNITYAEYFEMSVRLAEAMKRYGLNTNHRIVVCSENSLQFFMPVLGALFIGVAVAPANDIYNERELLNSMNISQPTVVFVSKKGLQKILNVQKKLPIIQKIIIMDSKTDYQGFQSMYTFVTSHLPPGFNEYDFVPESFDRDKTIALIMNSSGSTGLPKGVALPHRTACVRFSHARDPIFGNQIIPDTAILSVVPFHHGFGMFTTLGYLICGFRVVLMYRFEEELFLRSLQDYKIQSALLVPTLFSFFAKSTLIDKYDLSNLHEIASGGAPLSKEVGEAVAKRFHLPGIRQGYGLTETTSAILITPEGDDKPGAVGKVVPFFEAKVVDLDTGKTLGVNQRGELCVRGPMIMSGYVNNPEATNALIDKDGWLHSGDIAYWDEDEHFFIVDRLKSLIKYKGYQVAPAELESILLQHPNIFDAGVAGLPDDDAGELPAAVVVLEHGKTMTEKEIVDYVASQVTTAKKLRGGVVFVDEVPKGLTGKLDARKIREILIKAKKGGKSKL
Chain of Cytochrome P450 2C19 (P33261 whole entry): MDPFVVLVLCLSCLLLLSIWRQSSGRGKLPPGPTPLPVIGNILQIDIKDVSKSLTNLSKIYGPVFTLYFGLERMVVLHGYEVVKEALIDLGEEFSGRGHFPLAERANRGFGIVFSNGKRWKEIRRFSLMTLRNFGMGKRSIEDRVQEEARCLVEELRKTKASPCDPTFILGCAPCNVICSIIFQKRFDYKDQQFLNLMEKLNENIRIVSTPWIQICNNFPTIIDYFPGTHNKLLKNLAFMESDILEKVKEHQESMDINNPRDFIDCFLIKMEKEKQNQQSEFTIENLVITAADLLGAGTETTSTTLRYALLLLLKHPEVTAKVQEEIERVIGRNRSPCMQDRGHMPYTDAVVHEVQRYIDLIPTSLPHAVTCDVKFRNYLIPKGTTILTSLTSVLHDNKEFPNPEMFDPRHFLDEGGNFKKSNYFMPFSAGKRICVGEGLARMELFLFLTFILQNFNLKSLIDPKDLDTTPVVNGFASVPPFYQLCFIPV
Chain of Cytochrome P450 3A4 (P08684 whole entry): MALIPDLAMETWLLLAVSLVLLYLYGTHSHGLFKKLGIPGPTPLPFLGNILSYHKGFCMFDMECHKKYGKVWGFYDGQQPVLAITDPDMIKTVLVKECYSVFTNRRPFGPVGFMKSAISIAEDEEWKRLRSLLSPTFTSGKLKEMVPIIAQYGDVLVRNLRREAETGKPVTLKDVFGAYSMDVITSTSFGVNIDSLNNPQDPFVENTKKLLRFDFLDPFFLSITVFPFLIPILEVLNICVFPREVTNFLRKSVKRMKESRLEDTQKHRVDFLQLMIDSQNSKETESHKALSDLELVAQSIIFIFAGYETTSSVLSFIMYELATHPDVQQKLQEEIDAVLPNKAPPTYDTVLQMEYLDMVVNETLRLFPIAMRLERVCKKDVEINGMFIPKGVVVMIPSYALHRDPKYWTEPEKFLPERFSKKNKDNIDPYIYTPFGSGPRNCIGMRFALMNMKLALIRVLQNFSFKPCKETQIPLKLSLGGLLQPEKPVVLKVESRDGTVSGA

SMILES: CCc1ccc(NC2=NC(=O)/C(=C/c3cc(OC)c(OC)c(OC)c3)S2)cc1
- CC50 [1]: 21.2 µM (active)

SMILES: Cc1cccc(C)c1NC(=O)N1CCN(c2nc3ccccc3s2)CC1
- AC50 [2]: 1.05 µM (active)
- AC50 [3]: 10 µM (active)

SMILES: Cc1ccc(S(=O)(=O)N=C(N)Nc2nc(C)c3ccc(C)cc3n2)cc1
- CC50 [1]: > 50 µM (active)

SMILES: COc1cccc(NC(=O)c2cccs2)c1
- EC50 [4]: > 112 µM (not active)
- EC50 [5]: > 112 µM (not active)

SMILES: O=C(/C=C/c1ccco1)NCCCN1CCN(CCCNC(=O)/C=C/c2ccco2)CC1
- EC50 [4]: > 112 µM (not active)
- EC50 [5]: > 112 µM (not active)

SMILES: O=C(C1CC(c2ccc(F)cc2)=NO1)N1CCCCC1 (stereo unspecified)
- EC50 [6]: 5.56 µM (active)
- EC50 (H4): 33.4 µM (active)

SMILES: Cc1cc(C)n(Cc2ccc(F)cc2)c(=O)c1C#N
- EC50 [4]: > 112 µM (not active)
- EC50 [5]: 15.7 µM (active)

SMILES: O=C(Nc1ccc(Br)cc1)c1ccc(CSC2=NCCS2)cc1
- EC50 [6]: 3.81 µM (active)
- EC50 (H4): 99.7 µM (active)
- AC50 (Cytochrome P450 2C19): 11.2 µM (inconclusive)
- AC50 (Cytochrome P450 3A4): 3.55 µM (inconclusive)

SMILES: c1ccc2c(C[C@@H]3CNCCN3CCC34CC5CC(CC(C5)C3)C4)cccc2c1
- IC50 [7]: > 20 µM (inactive)

SMILES: Cc1sc2ncnc(N3CCN(S(=O)(=O)c4ccccc4)CC3)c2c1C
- AC50 (INS1): 4.3 µM (active)
- AC50 [8]: 2.3 µM (active)
- AC50 [9]: 3.43 µM (active)

SMILES: CO[C@H]1CN(C)C(=O)c2ccc(NC(=O)C3CCC3)cc2OC[C@H](C)N(CC2CCCCC2)C[C@@H]1C
- AC50 [10]: 0.592 µM (active)
- AC50 [2]: 1.25 µM (active)
- AC50 [3]: 1.83 µM (active)

SMILES: C[C@H](CO)N1C[C@H](C)[C@H](CN(C)S(=O)(=O)c2cccs2)Oc2ccc(NC(=O)Nc3ccccc3)cc2CC1=O
- AC50 [10]: 0.395 µM (active)
- AC50 [2]: 0.579 µM (active)
- AC50 [3]: 1.34 µM (active)

SMILES: O=C(c1ccccc1F)N1C[C@H]2[C@@H](c3ccccc31)[C@@H](CO)N2C(=O)c1ccc(F)cc1
- AC50 [11]: 35.2 µM (active)

SMILES: CO[C@@H]1CN(C)C(=O)c2ccc(NC(=O)c3ccc(F)cc3)cc2OC[C@@H](C)N(C(=O)c2ccc(F)cc2)C[C@@H]1C
- AC50 [11]: 4.29 µM (active)

SMILES: CCCN(C)C[C@H]1Oc2ncc(C#Cc3ccccc3OC)cc2C(=O)N([C@H](C)CO)C[C@H]1C
- AC50 [11]: 3.28 µM (active)

SMILES: CCCNC(=O)N1[C@H](CO)[C@H](c2ccc(-c3ccc(C#N)cc3)cc2)[C@@H]1CNC
- AC50 [11]: 11.5 µM (active)

SMILES: C/C=C/c1ccc2c(c1)[C@H]1[C@H](CCN1S(=O)(=O)c1cccc(F)c1)[C@@H](CO)N2
- AC50 [11]: 4.13 µM (active)
